According to a melting point compilation (Tetko et al.; mined from patent text by program, amines drawn as free bases though some values may be those of a salt):

SMILES | melting point [°C]
CN1CCCC1CCOc1ccccc1CCc1cccc(C#N)c1 (stereo not given) | 101 to 102
COc1cccc2c1CNC2 | 58.5 to 60
COC(=O)C(Oc1ccc(Cl)c2c1CCCC2)c1ccc(Oc2ccc(Cl)cc2)cc1 (stereo not given) | 87.5 to 90
N#Cc1ncc(Cl)nc1Br | 66 to 67
CON=C1CN(c2nc3c(cc2F)c(=O)c(C(=O)O)cn3C2CC2)CC12CN(C(=O)OC(C)(C)C)C2 | 278 to 279
CN1CCN(CC/C=C/c2ccc3c(Nc4ccc(Sc5nccn5C)c(Cl)c4)c(C#N)cnc3c2)CC1 | 225 to 235
COc1ccc(NC(=O)c2coc3c2C(=O)CCCC3)c(F)c1 | 168 to 172
CC(Oc1ccc(COc2ccc(Cl)cc2)cc1)C(=O)OCCOc1cc(Cl)c(Cl)cc1Cl (stereo not given) | 83
O=C(O)c1c(Cc2cc3c(cc2Cl)OCO3)c(-c2ccccn2)nn1CC1CCCCC1 | 238
CCCn1c(=O)c2[nH]c(/C=C/c3cc(OC)c(OC)cc3OC)nc2n(CCC)c1=O | 254 to 256
Cc1c(Br)c(C)c2c(C)coc2c1Cc1ccc(C(C)C)cc1 | 76 to 77
CC1(COc2nc3ccccc3o2)Cn2cc([N+](=O)[O-])nc2O1 (stereo not given) | 200 to 203
COCc1cc(Oc2ccc3c(C(=O)OC)cccc3c2)ncn1 | 87 to 88
COC(=O)c1ncn(Cc2ccc([N+](=O)[O-])cc2)n1 | 175 to 177
CCOc1c(-c2ccc(S(C)(=O)=O)cc2)cnn(-c2ccc(F)c(F)c2)c1=O | 121 to 123
Brc1ccc(C2OCCO2)cc1 | 56 to 57
C=CC(=O)OCCCCCCCCCCCOc1ccc(O)cc1 | 72 to 74
N#Cc1c(Nc2ccccc2)cccc1Oc1ccccc1 | 146 to 147
N#CC1(c2cccs2)C2CC3CC(C2)CC1C3 (stereo not given) | 108 to 110
Clc1ccc(C(c2ccccc2)N2CCN(CCCn3cnc4ccccc43)CC2)cc1 (stereo not given) | 106
CCOCCOCCOCCOc1cc(OCCCCCCCCCCCCOc2ccccc2)cc(N(CC(=O)O)CC(=O)O)c1 | 58 to 61
COc1cccc(NC(=O)NC2N=C(c3ccc(C)cc3)c3ccccc3N(C)C2=O)c1 (stereo not given) | 240 to 242

SMILES | melting point [°C]
CCCCCCCCCCCCOC(=O)c1cccc(NC(=O)NS(=O)(=O)c2ccc(C)cc2)c1 | 110 to 112
NC(=S)NN=CC=Cc1ccccc1 | 137 to 139
c1cnc(-c2cccnc2)nc1 | 51 to 52
CCc1ccc(S(=O)(=O)Nc2ccc(Cl)cc2[N+](=O)[O-])cc1 | 104 to 106
O=C(c1ccc(-n2ccc(C(F)(F)F)n2)cc1C(F)(F)F)N1Cc2cccnc2Nc2ccccc21 | 127 to 129
N#Cc1ccc(CC23CCCN2C(=O)N(c2cc(Cl)cc(-n4cccc4)c2)C3=O)cc1 (stereo not given) | 266
CC(C)(C)OC(=O)N1CCN(C(=O)c2ccccc2)CC1 | 106
O=C1OC2(CCN(C(=O)Nc3cnc(-c4ccccc4)cn3)CC2)c2ccccc21 | 206
O=C(O)CCSC(SCCC(=O)O)c1cccc(OCc2ccc3ccccc3n2)c1 | 150 to 152
Cc1cccc(-c2nc3cccnn3c2-c2ccnc(N)c2)c1 | 188 to 189
CC(C)(C)NS(=O)(=O)Cc1cc(Br)c(NC(=O)C(F)(F)F)c(Br)c1 | 166 to 167
CCOc1cc(C=[N+]([O-])C(C)(C)CC(C)(C)C)ccc1OC | 77.5
c1ccc(-c2[nH]c3cc4c(cc3c2-c2ccccc2)OCO4)cc1 | 187 to 188
CCCC1=NN(c2ccc(C(=O)N(CC)CC)cc2)C(=O)C1=CNc1ccccc1CC | 123
CCCCNc1c(N)c(N)nc(C)c1C(=O)OCC | 82 to 83
O=c1[nH]nc(-c2nc3ccccc3o2)[nH]1 | > 300
COc1ccc2cc(-c3ccc(OCC(O)CNC(C)(C)C)cc3)n(C)c(=O)c2c1 (stereo not given) | 130 to 131
Cc1c(-c2ccnn2-c2ccc(C#N)cc2)nc(C(N)=O)c(=O)n1-c1cccc(C(F)(F)F)c1 | 264
COc1cc(Cl)c([N+](=O)[O-])cc1C(=O)O | 184 to 185
O=C1CN2CCC1(Cc1ccccc1)CC2 | 111
N#CC=C1CCN(c2ccc(N3C[C@@H](CN=[N+]=[N-])OC3=O)cc2F)CC1 | 112 to 114

Now from value to compound:

melting point [°C] | SMILES
138 to 139 | CC(C)(C)OC(=O)N(C(=O)OC(C)(C)C)C(=O)c1cc2cc(Br)ccc2o1
131 to 132 | COc1cc([C@@H](O)[C@@H](C)N2CCC(O)(c3ccccc3)CC2)ccc1OCc1ccccc1 (relative stereo)
101 to 103 | C=CCN1CCCN(c2ccc(Cl)cc2C)C1=S
144 to 146 | Cn1c(C(F)(F)F)cc(=O)n(-c2c(F)cc(Cl)c3nc(C(Br)Br)oc23)c1=O
80 to 82 | CCCCN(C)CCc1ccc(Nc2ncc3c(n2)-c2ccccc2C(c2ccccc2C(F)(F)F)C3)cc1 (stereo not given)
90 to 91 | Cc1cc(-n2c(C)ccc2C)c(C)cc1N=CN(C)C
185 to 190 | CN1C(=O)CC[C@]2(C)c3ccc(-c4ccc5c(c4)CCC5O)cc3CC[C@@H]12 (stereo not given in full)
112 to 115 | O[C@@H](CNCCOc1ccc2oc(-c3noc(C(F)(F)F)n3)cc2c1)COc1ccccc1Cl
178 to 180 | O=C(NC1CCN(CC(O)c2ccccc2)CC1)c1ccccc1 (stereo not given)
68 to 69 | CCCCn1c(=Nc2ccccc2)sc2ncccc2c1=O
222 to 224 | CCOC(=O)C1(C)C(=O)Nc2cc(NC(=O)c3ccncc3)ccc21 (stereo not given)
78 to 80 | COc1c(Cl)nc(-c2ccccc2)nc1Cl
172 to 174 | CCOC(=O)C(N)=NOC(=O)c1cnccc1C(F)(F)F
119 | CC(O)(c1ccccc1)c1cc(C2CCCCC2)ccc1O (stereo not given)
104 to 106 | CN(C)C(=O)C(C#N)=C(O)c1ccc(C(F)(F)F)cc1[N+](=O)[O-]
100 to 103 | CCc1ccc(Nc2c(-c3nnc(NCCO)o3)ccc(F)c2F)c(F)c1
87 to 89 | CCCCOC1OC(CO)C(O)C(O)C1(O)N(CC)C(=O)N(CCCl)N=O (stereo not given)
128 to 129 | COc1nccnc1OCC(O)CN1CCC(N2CCN(c3ccccc3)C2=O)CC1 (stereo not given)
102 to 104 | C=CCON=C(C(=O)OCC)c1csc(N)n1

melting point [°C] | SMILES
79 to 82 | CC(C)(C)c1cc(SCO)cc(C(C)(C)C)c1O
146 to 147 | CC1(C)SC(C)(C)N(C(=O)COc2ccc(Cl)cc2)C1C(=O)O (stereo not given)
61 to 65 | CCN(CC)c1ccc(/C=C/C(=O)CC(=O)/C=C/c2ccc3cc[nH]c3c2)c(OC)c1
113 to 115 | COCn1nc(-c2cc(C(C)(C)C)c(O)c(C(C)(C)C)c2)c2cccnc21
185 to 186 | Cc1ccc(C(=O)NC(NC(=S)Nc2cccc([N+](=O)[O-])c2)C(F)(F)F)cc1 (stereo not given)
139 to 140 | CC(C)(C)OC(=O)N1Cc2c(Br)sc(-c3ccccc3)c2C1
233 to 234 | N#Cc1c(Oc2ccc(Oc3ccc(N)cc3)cc2)cccc1Oc1ccc(Oc2ccc(N)cc2)cc1
158 to 161 | Nc1nc(OCCc2ccccc2Cl)nc2c1ncn2C1OC(CO)C(O)C1O (stereo not given)
81 to 82 | CCCCOc1ccc(CCCOc2nn(CC)cc2CC(=O)O)c(Oc2ccc(C(F)(F)F)cn2)c1
176 to 178 | CN1CCN(c2cc3c(cc2F)c(=O)n(O)c(=O)n3-c2cccc(F)c2)CC1
256 to 257 | Cc1nnc(-c2cc(NCc3c(C)cccc3C)c3nc(C)n(C)c3c2)o1
90 to 92 | O=C(O)CCC1CCN(C(=O)CN2CCN(c3ccncc3)CC2)CC1
117 to 119 | OC(CNCCNc1cccc2cn[nH]c12)COc1ccccc1 (stereo not given)
174 to 176 | CC(C)OC(=O)N1CC(=O)Nc2ccc(-c3cccc(Cl)c3)cc21
94 to 95 | CO/C=C(/C(=O)OC)c1ccccc1Oc1cc(Cl)ncn1
129 to 130 | COc1ccc(COc2cccc3cc(NS(=O)(=O)C(F)(F)F)ccc23)cc1Cl
111 | O=C(CBr)c1ccc(S(=O)(=O)Cl)cc1
183 to 185 | CS(=O)(=O)Nc1ccc2c(c1)CCC1(CCC(N3CCc4ccccc4C3)CC1)O2 (stereo not given)
150 to 153 | CCCCOCCOc1ccc(-c2ccc3c(c2)C=C(C(=O)OC)CCN3c2ccc(S(=O)(=O)N(C)C)cc2)cc1

melting point [°C] | SMILES
133 to 134 | CN(C(=O)c1ccc(-n2cc3ccccc3n2)cc1)[C@@H]1CCN(C(=O)OC(C)(C)C)C1
141 | CC(C)c1nc(N)oc1-c1ccc(F)c2ccccc12
108 to 112 | COc1c(C)c2c(c(OS(=O)(=O)c3ccc(C)cc3)c1CC1=C(C)C(O)CC1)C(=O)OC2 (stereo not given)
141 to 143 | Cc1cccc2c1CCNC2=O
113 to 116 | CCOC(=O)c1ccc2c(c1)C=C(n1ccnc1)CC2
108 to 110 | CC(=N)N(C)C1CCCCC1
101 to 103 | Clc1ccc(-c2cc(-c3ccccc3)c(-c3ccccc3)s2)cc1Cl
140 to 143 | CCCCCCCCCCCC(=O)NC(=O)N1CC1C#N (stereo not given)
196 to 197 | CC(N)C(=O)N1CC(=O)N(CC(N)=O)C1(C)C (stereo not given)
240 | CCOC(=O)c1c(N2CCN(C=O)CC2)c2cc(C)ccc2n(-c2ccccc2)c1=O
136 to 140 | Cn1nc2ccccc2c1C(=O)NCCCN1CCC(c2ccc(F)cc2)CC1
171 to 174 | COCc1cnc(N)nc1N
146 to 148 | CC(C)(C)OC(=O)NN(Cc1ccc(-c2cnccn2)cc1)C[C@H](O)[C@@H](N)Cc1ccccc1
147 | CC(C)CCCC(C)C1CCC2C3CC=C4CC(OC(=O)OCC(N)C(=O)O)CCC4(C)C3CCC12C (stereo not given)
147 to 149 | O=C(NCCN1CCc2ccc3c(c21)CCO3)C1CC1
138 to 141 | CCC(C)(C)OC(=O)NC(C)(Cc1c[nH]c2ccccc12)C(=O)NCCc1ccncc1 (stereo not given)
100 to 103 | CC1(O)OC(=O)c2ccc(Oc3ccc(C(F)(F)F)cc3Cl)cc21 (stereo not given)
39 to 41 | CC[Si](C)(C)CCCCCCCCC1=C(O)C(=O)c2ccccc2C1=O
> 300 | Cc1nc2nc[nH]c2c(=O)[nH]1
